Consider seven compounds from the NIST ThermoML archive (doi:10.1021/acs.jced.5b00201).

The data set can be described thus: xn = mol fraction of the nth substance listed. The following applies: 298.2 K, 100 kPa, Liquid, Pycnometric method.

Numbers after ± are expanded uncertainties.

Turning to `Cc1ccc(-c2ncc(Cl)cc2-c2ccc(S(C)(=O)=O)cc2)cn1` [etoricoxib] + OCCCCO, the mass density (commonly the mass of a sample divided by its volume) (x1 = 0.07226) is reported as 1039.8 ± 0.9 kg/m3.

For `Cc1ccc(-c2ncc(Cl)cc2-c2ccc(S(C)(=O)=O)cc2)cn1` [etoricoxib] + CCO, the mass density (x1 = 0.05374) worked out at 819.9 ± 0.7 kg/m3.

Regarding `Cc1ccc(-c2ncc(Cl)cc2-c2ccc(S(C)(=O)=O)cc2)cn1` [etoricoxib] + CN(C)C=O, where the note is “x1 = 0.06899”, the mass density is 952.7 ± 0.8 kg/m3.

For the compound `Cc1ccc(-c2ncc(Cl)cc2-c2ccc(S(C)(=O)=O)cc2)cn1` [etoricoxib] + C1COCCO1, the mass density (x1 = 0.07301) was 1026.8 ± 0.9 kg/m3.

In the case of `Cc1ccc(-c2ncc(Cl)cc2-c2ccc(S(C)(=O)=O)cc2)cn1` [etoricoxib] + O, the mass density (x1 = 1.56e-05) turned out to be 994.8 ± 0.8 kg/m3.

Turning to `Cc1ccc(-c2ncc(Cl)cc2-c2ccc(S(C)(=O)=O)cc2)cn1` [etoricoxib] + CC(=O)N(C)C, under “x1 = 0.08112”, the mass density was 942.7 ± 0.8 kg/m3.

`Cc1ccc(-c2ncc(Cl)cc2-c2ccc(S(C)(=O)=O)cc2)cn1` [etoricoxib] + C[S+](C)[O-]: the mass density (x1 = 0.06044) turned out to be 1105.6 ± 1 kg/m3.
